Measurements as given in PubChem BioAssay AID1963976 (Molecular Pharmacology Branch, DTP, NCI, 2024).

Test system: 435261-313-R-J1-PDC tumor spheroid viability
Test: Anticancer human tumor 435261-313-R-J1-PDC patient-derived colon adenocarcinoma cell line growth inhibition [PI3K]
Conditions: spheroids with HUVEC and MSC; for IC50: curve of first compound; for viability, T/C: stronger effect = lower value
Method in brief: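 Multi-cell spheroids combine tumor cells with HUVEC and human MSCs, treated with targeted agents alone or with inavolisib, alpelisib, duvelisib or copanlisib. Concentrations fall in half-log steps from at or near clinical Cmax, or from 10 microM where Cmax is unknown; viability read-out.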

[1] = second compound 0.0316 µM, first compound 0.0316 µM
[2] = second compound 0.0316 µM, first compound 0.1 µM
[3] = second compound 0.0316 µM, first compound 0.316 µM
[4] = second compound 0.0316 µM, first compound 1 µM
[5] = second compound 0.0316 µM, first compound 3.16 µM
[6] = second compound 0.0316 µM, first compound 10 µM
[7] = second compound 0.1 µM, first compound 0.0316 µM
[8] = second compound 0.1 µM, first compound 0.1 µM
[9] = second compound 0.1 µM, first compound 0.316 µM
[10] = second compound 0.1 µM, first compound 1 µM
[11] = second compound 0.1 µM, first compound 3.16 µM
[12] = second compound 0.1 µM, first compound 10 µM
[13] = second compound 0.316 µM, first compound 0.0316 µM
[14] = second compound 0.316 µM, first compound 0.1 µM
[15] = second compound 0.316 µM, first compound 0.316 µM
[16] = second compound 0.316 µM, first compound 1 µM
[17] = second compound 0.316 µM, first compound 3.16 µM
[18] = second compound 0.316 µM, first compound 10 µM
[19] = second compound 1 µM, first compound 0.0316 µM
[20] = second compound 1 µM, first compound 0.1 µM
[21] = second compound 1 µM, first compound 0.316 µM
[22] = second compound 1 µM, first compound 1 µM
[23] = second compound 1 µM, first compound 3.16 µM
[24] = second compound 1 µM, first compound 10 µM
[25] = second compound 3.16 µM, first compound 0.0316 µM
[26] = second compound 3.16 µM, first compound 0.1 µM
[27] = second compound 3.16 µM, first compound 0.316 µM
[28] = second compound 3.16 µM, first compound 1 µM
[29] = second compound 3.16 µM, first compound 3.16 µM
[30] = second compound 3.16 µM, first compound 10 µM
[31] = second compound 10 µM, first compound 0.0316 µM
[32] = second compound 10 µM, first compound 0.1 µM
[33] = second compound 10 µM, first compound 0.316 µM
[34] = second compound 10 µM, first compound 1 µM
[35] = second compound 10 µM, first compound 3.16 µM
[36] = second compound 10 µM, first compound 10 µM
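Further: spheroids exposed to compounds for 7 days.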

In the case of C=CC(=O)N1CCN(c2nc(=O)n(-c3c(C)ccnc3C(C)C)c3nc(-c4c(O)cccc4F)c(F)cc23)C(C)C1 (centres undefined) + Cc1nc(NC(=O)N2CCCC2C(N)=O)sc1-c1ccnc(C(C)(C)C(F)(F)F)c1, the IC50 (second compound 0.0316 µM) is reported as > 10000 nM, the IC50 (second compound 0.1 µM) is reported as > 10000 nM and the IC50 (second compound 0.316 µM) is reported as > 10000 nM. For the same compound, the IC50 (second compound 1 µM) was < 31.6 nM, the IC50 (second compound 3.16 µM) was < 31.6 nM and the IC50 (second compound 10 µM) was < 31.6 nM. It also gave a viability, T/C [1] of 70.5%, a viability, T/C [2] of 84% and a viability, T/C [3] of 80.8%. For the same compound, the viability, T/C [4] was 91.5%, the viability, T/C [5] was 112% and the viability, T/C [6] was 121%. The viability, T/C [7] was 71.5%, the viability, T/C [8] was 71.3% and the viability, T/C [9] was 73.5%. It also gave a viability, T/C [10] of 75%, a viability, T/C [11] of 129% and a viability, T/C [12] of 119%. For the same compound, the viability, T/C [13] was 49.5%, the viability, T/C [14] was 52.4% and the viability, T/C [15] was 56.9%. It also gave a viability, T/C [16] of 58.4%, a viability, T/C [17] of 77.1% and a viability, T/C [18] of 78.9%. The viability, T/C [19] was 35.1%, the viability, T/C [20] was 25.1% and the viability, T/C [21] was 27.6%. The viability, T/C [22] was 39.6%, the viability, T/C [23] was 36.6% and the viability, T/C [24] was 54.8%. It also gave a viability, T/C [25] of 15.3%, a viability, T/C [26] of 19.4% and a viability, T/C [27] of 17.9%. The viability, T/C [28] was 23%, the viability, T/C [29] was 24.3% and the viability, T/C [30] was 18.6%. The viability, T/C [31] was 9.68%, the viability, T/C [32] was 9.35% and the viability, T/C [33] was 8.96%. It also gave a viability, T/C [34] of 9.4%, a viability, T/C [35] of 9.55% and a viability, T/C [36] of 6.21%.
With Cn1nccc1Nc1nccc(-c2ccn(C(CO)c3ccc(Cl)c(F)c3)c(=O)c2)n1 (centres undefined) + Cc1nc(NC(=O)N2CCCC2C(N)=O)sc1-c1ccnc(C(C)(C)C(F)(F)F)c1 the IC50 (second compound 0.0316 µM) was 147 nM, the IC50 (second compound 0.1 µM) was 119 nM and the IC50 (second compound 0.316 µM) was < 31.6 nM. For the same compound, the IC50 (second compound 1 µM) was < 31.6 nM, the IC50 (second compound 3.16 µM) was < 31.6 nM and the IC50 (second compound 10 µM) was < 31.6 nM. For the same compound, the viability, T/C [1] was 62.5%, the viability, T/C [2] was 58.2% and the viability, T/C [3] was 37%. The viability, T/C [4] was 24.5%, the viability, T/C [5] was 20.9% and the viability, T/C [6] was 11.4%. For the same compound, the viability, T/C [7] was 53.1%, the viability, T/C [8] was 54.8% and the viability, T/C [9] was 32.4%. For the same compound, the viability, T/C [10] was 18.5%, the viability, T/C [11] was 17.9% and the viability, T/C [12] was 10.8%. For the same compound, the viability, T/C [13] was 36%, the viability, T/C [14] was 36.4% and the viability, T/C [15] was 21.3%. It also gave a viability, T/C [16] of 12.9%, a viability, T/C [17] of 14% and a viability, T/C [18] of 7.34%. For the same compound, the viability, T/C [19] was 19.1%, the viability, T/C [20] was 18.9% and the viability, T/C [21] was 11.6%. The viability, T/C [22] was 8%, the viability, T/C [23] was 7.78% and the viability, T/C [24] was 3.02%. It also gave a viability, T/C [25] of 13.6%, a viability, T/C [26] of 10.8% and a viability, T/C [27] of 9.01%. It also gave a viability, T/C [28] of 4.15%, a viability, T/C [29] of 3.68% and a viability, T/C [30] of 1.12%. It also gave a viability, T/C [31] of 7.41%, a viability, T/C [32] of 4.45% and a viability, T/C [33] of 2.55%. For the same compound, the viability, T/C [34] was 1.89%, the viability, T/C [35] was 0.52% and the viability, T/C [36] was 0.24%.
